The record followed here is US8067613B2 (Abbott Laboratories, priority 2007, dated 2011).

In the experiment the target is T1, Recombinant Human Poly(ADP-Ribose)Polymerase (PARP), PARP-1 (Homo sapiens, UniProt P09874).
T1 construct: purchased Trevigen (Gaithersburg, Md.); host or cells: E. coli
T1 sequence (P09874 whole entry): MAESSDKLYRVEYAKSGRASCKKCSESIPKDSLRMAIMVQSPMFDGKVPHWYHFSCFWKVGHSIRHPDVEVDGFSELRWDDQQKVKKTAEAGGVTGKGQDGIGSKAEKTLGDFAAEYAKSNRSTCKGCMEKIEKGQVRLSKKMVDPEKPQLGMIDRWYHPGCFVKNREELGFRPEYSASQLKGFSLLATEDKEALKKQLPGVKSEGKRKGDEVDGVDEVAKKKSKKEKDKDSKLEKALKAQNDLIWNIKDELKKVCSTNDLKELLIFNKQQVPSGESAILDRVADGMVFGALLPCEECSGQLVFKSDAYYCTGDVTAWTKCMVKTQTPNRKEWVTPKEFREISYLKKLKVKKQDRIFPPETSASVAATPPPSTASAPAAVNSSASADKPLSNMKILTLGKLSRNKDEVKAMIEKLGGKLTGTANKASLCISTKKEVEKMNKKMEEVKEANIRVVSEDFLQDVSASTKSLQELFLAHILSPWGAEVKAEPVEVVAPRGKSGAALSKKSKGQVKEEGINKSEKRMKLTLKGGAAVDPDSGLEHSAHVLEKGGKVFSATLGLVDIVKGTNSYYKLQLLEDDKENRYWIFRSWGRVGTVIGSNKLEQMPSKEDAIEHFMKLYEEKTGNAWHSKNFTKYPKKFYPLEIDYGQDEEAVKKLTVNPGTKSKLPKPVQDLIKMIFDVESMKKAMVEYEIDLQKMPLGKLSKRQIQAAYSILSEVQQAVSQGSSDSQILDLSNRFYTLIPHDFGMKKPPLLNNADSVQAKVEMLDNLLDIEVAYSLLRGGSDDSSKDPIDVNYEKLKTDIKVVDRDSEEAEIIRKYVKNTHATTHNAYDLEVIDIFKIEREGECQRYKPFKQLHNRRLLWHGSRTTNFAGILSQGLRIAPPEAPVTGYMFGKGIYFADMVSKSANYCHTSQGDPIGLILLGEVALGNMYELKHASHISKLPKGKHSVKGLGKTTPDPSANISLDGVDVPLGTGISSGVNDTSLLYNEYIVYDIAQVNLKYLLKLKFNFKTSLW
As to the kind of experiment: PARP1 assay (SPA/FlashPlate, [3H]-NAD+ incorporation into biotinylated histone H1). In kind it is biochemical. The note with it: 1 nM PARP enzyme, 1.5 μM [3H]-NAD+, 200 nM biotinylated histone H1, 200 nM slDNA; Ki from inhibition curves at various substrate concentrations. On the procedure:
Nicotinamide[2,5′,8-3H]adenine dinucleotide and strepavidin SPA beads were obtained from Amersham Biosiences (UK). Recombinant Human Poly(ADP-Ribose)Polymerase (PARP), purified from E. coli and 6-Biotin-17-NAD^+, were obtained from Trevigen (Gaithersburg, Md.). NAD^+, histone, aminobenzamide, 3-aminobenzamide and Calf Thymus DNA (dcDNA) were obtained from Sigma (St. Louis, Mo.). Stem loop oligonucleotide containing MCAT sequence was obtained from Qiagen. The oligos were dissolved to 1 mM in annealing buffer containing 10 mM Tris HCl (pH 7.5), 1 mM EDTA, and 50 mM NaCl, incubated for 5 minutes at 95° C. and annealed at 45° C. for 45 minutes. Histone H1 (95% electrophoretically pure) was obtained from Roche (Indianapolis, Ind. Biotinylated histone H1 was prepared by treating the protein with Sulfo-NHS-LC-Biotin (Pierce Rockford, Ill.). The biotinylation reaction was conducted by slowly and intermittently adding 3 equivalents of 10 mM Sulfo-NHS-LC-Biotin to 100 μM Histone H1 in phosphate-buffered saline, pH 7.5, at 4° C. with gentle vortexing over 1 minute then incubation at 4° C. for 1 hour. Streptavidin coated (FlashPlate Plus) microplates were obtained from Perkin Elmer (Boston, Mass.).
PARP1 assay was conducted in PARP assay buffer containing 50 mM tris (pH 8.0), 1 mM DTT and 4 mM MgCl2. PARP reactions contained 1.5 μM [^3H]-NAD^+ (1.6 μCi/mmol), 200 nM biotinylated histone H1, 200 nM slDNA, and 1 nM PARP enzyme. Auto reactions utilizing SPA bead-based detection were carried out in 100 μL volumes in white 96 well plates.
Reactions were initiated by adding 50 μL of 2×NAD^+ substrate mixture to 50 μL of 2× enzyme mixture containing PARP and DNA. These reactions were terminated by the addition of 150 μL of 1.5 mM benzamide (1000-fold over its IC50). 170 μL of the stopped reaction mixtures were transferred to streptavidin Flash Plates, incubated for 1 hour and counted using a TopCount microplate scintillation counter. The Ki data (in nM) for representative compounds of this invention were determined from inhibition curves at various substrate concentrations and are shown in TABLE 1.
What is called Ki is the equilibrium dissociation constant of an inhibitor or competing ligand from its target. For the molecule `NC(=O)c1cccc2[nH]c(-c3csc(-c4cccnc4)n3)nc12` [Example 1], the Ki was determined as 14.5 nM.

Take `NC(=O)c1cccc2[nH]c(-c3csc(-c4ccncc4)n3)nc12` [Example 2]: the Ki amounted to 11.8 nM.

Consider `Cc1nc(-c2cnccn2)sc1-c1nc2c(C(N)=O)cccc2[nH]1` [Example 3, 2-(4-methyl-2-pyrazin-2-yl-1,3-thiazol-5-yl)-H-benzimidazole-4-carboxamide], for which the Ki is 28 nM.

With `NC(=O)c1cccc2[nH]c(-c3csc(-c4cccs4)n3)nc12` [Example 4, 2-(2-thien-2-yl-1,3-thiazol-4-yl)-1H-benzimidazole-4-carboxamide], the Ki was 20.9 nM.

Take `NC(=O)c1cccc2[nH]c(-c3csc(C4CCNCC4)n3)nc12` [Example 5, 2-(2-piperidin-4-yl-1,3-thiazol-4-yl)-1H-benzimidazole-4-carboxamide]: the inhibitory constant (Ki) worked out at 32 nM.

For `CN1CCC(c2nc(-c3nc4c(C(N)=O)cccc4[nH]3)cs2)CC1` [Example 6, 2-(2-(1-methylpiperidin-4-yl)-1,3-thiazol-4-yl)-1H-benzimidazole-4-carboxamide], the Ki came out at 45 nM.

For `CC(C)N1CCC(c2nc(-c3nc4c(C(N)=O)cccc4[nH]3)cs2)CC1` [Example 7, 2-(2-(1-isopropylpiperidin-4-yl)-1,3-thiazol-4-yl)-1H-benzimidazole-4-carboxamide], the inhibition constant Ki stood at 61 nM.

Consider `CCCN1CCC(c2nc(-c3nc4c(C(N)=O)cccc4[nH]3)cs2)CC1` [Example 8, 2-(2-(1-propylpiperidin-4-yl)-1,3-thiazol-4-yl)-1H-benzimidazole-4-carboxamide], for which the inhibitory constant (Ki) amounted to 50 nM.

Regarding `NC(=O)c1cccc2[nH]c(-c3csc(C4CCN(C5CCC5)CC4)n3)nc12` [Example 9, 2-(2-(1-cyclobutylpiperidin-4-yl)-1,3-thiazol-4-yl)-1H-benzimidazole-4-carboxamide], the Ki was found to be 44 nM.

Consider `NC(=O)c1cccc2[nH]c(-c3ccc(-c4ccccn4)s3)nc12` [Example 10, 2-(5-pyridin-2-ylthien-2-yl)-1H-benzimidazole-4-carboxamide], for which the Ki came out at 3.1 nM.

On to `NC(=O)c1cccc2[nH]c(-c3ccc(-c4cnccn4)s3)nc12` [Example 11, 2-(5-pyrazin-2-ylthien-2-yl)-1H-benzimidazole-4-carboxamide], for which the inhibition constant (Ki) stood at 2 nM.

Consider `NC(=O)c1cccc2[nH]c(-c3ccc(-c4ncccn4)s3)nc12` [Example 12, 2-(5-pyrimidin-2-ylthien-2-yl)-1H-benzimidazole-4-carboxamide], for which the Ki is 9 nM.

As to `NC(=O)c1cccc2[nH]c(-c3ccc(-c4cccnc4)s3)nc12` [Example 13, 2-(5-pyridin-3-ylthien-2-yl)-1H-benzimidazole-4-carboxamide], the inhibitory constant (Ki) stood at 2.4 nM.

Take `NC(=O)c1cccc2[nH]c(-c3ccc(-c4ccncc4)s3)nc12` [Example 14, 2-(5-pyridin-4-ylthien-2-yl)-1H-benzimidazole-4-carboxamide]: the Ki was determined as 3.2 nM.

With `NC(=O)c1cccc2[nH]c(-c3ccc(-c4ccc[nH]4)s3)nc12` [Example 15, 2-(5-(1H-pyrrol-2-yl)thien-2-yl)-1H-benzimidazole-4-carboxamide], the Ki is 5 nM.

Regarding `NC(=O)c1cccc2[nH]c(-c3ccc([C@H]4CCCN4)s3)nc12` [Example 16, 2-(5-((2R)-pyrrolidin-2-yl)thien-2-yl)-1H-benzimidazole-4-carboxamide], the Ki was 6 nM.

In the case of `CN1CCC[C@@H]1c1ccc(-c2nc3c(C(N)=O)cccc3[nH]2)s1` [Example 17, 2-(5-((2R)-1-methylpyrrolidin-2-yl)thien-2-yl)-1H-benzimidazole-4-carboxamide], the Ki was determined as 10 nM.

`CC(C)N1CCC[C@@H]1c1ccc(-c2nc3c(C(N)=O)cccc3[nH]2)s1` [Example 18, 2-(5-((2R)-1-isopropylpyrrolidin-2-yl)thien-2-yl)-1H-benzimidazole-4-carboxamide]: the inhibition constant Ki came to 6 nM.

Turning to `CCCN1CCC[C@@H]1c1ccc(-c2nc3c(C(N)=O)cccc3[nH]2)s1` [Example 19, 2-(5-((2R)-1-propylpyrrolidin-2-yl)thien-2-yl)-1H-benzimidazole-4-carboxamide], the inhibition constant (Ki) was 8 nM.

On to `NC(=O)c1cccc2[nH]c(-c3ccc([C@H]4CCCN4CC4CC4)s3)nc12` [Example 20, 2-(5-((2R)-1-(cyclopropylmethyl)pyrrolidin-2-yl)thien-2-yl)-1H-benzimidazole-4-carboxamide], for which the inhibition constant Ki is 5 nM.

As to `NC(=O)c1cccc2[nH]c(-c3ccc([C@H]4CCCN4C4CCC4)s3)nc12` [Example 21, 2-(5-((2R)-1-cyclobutylpyrrolidin-2-yl)thien-2-yl)-1H-benzimidazole-4-carboxamide], the Ki is 4 nM.

`NC(=O)c1cccc2[nH]c(-c3ccc([C@H]4CCCN4C4CCCC4)s3)nc12` [Example 22, 2-(5-((2R)-1-cyclopentylpyrrolidin-2-yl)thien-2-yl)-1H-benzimidazole-4-carboxamide]: the Ki was determined as 3 nM.

For `NC(=O)c1cccc2[nH]c(-c3ccc([C@H]4CCCN4C4CCCCC4)s3)nc12` [Example 23, 2-(5-((2R)-1-cyclohexylpyrrolidin-2-yl)thien-2-yl)-1H-benzimidazole-4-carboxamide], the inhibition constant (Ki) amounted to 8 nM.

Take `NC(=O)c1cccc2[nH]c(-c3ccc([C@H]4CCCN4C4CCOCC4)s3)nc12` [Example 24, 2-(5-((2R)-1-tetrahydro-2H-pyran-4-ylpyrrolidin-2-yl)thien-2-yl)-1H-benzimidazole-4-carboxamide]: the Ki was 12 nM.

`NC(=O)c1cccc2[nH]c(-c3ccc([C@H]4CCCN4Cc4ccccn4)s3)nc12` [Example 25, 2-(5-((2R)-1-(pyridin-2-ylmethyl)pyrrolidin-2-yl)thien-2-yl)-1H-benzimidazole-4-carboxamide]: the Ki is 10 nM.

With `NC(=O)c1cccc2[nH]c(-c3ccc([C@H]4CCCN4Cc4ccncc4)s3)nc12` [Example 26, 2-(5-((2R)-1-(pyridin-4-ylmethyl)pyrrolidin-2-yl)thien-2-yl)-1H-benzimidazole-4-carboxamide], the inhibitory constant (Ki) was found to be 6 nM.

Regarding `CC(C)CN1CCC[C@@H]1c1ccc(-c2nc3c(C(N)=O)cccc3[nH]2)s1` [Example 27, 2-(5-((2R)-1-isobutylpyrrolidin-2-yl)thien-2-yl)-1H-benzimidazole-4-carboxamide], the inhibitory constant (Ki) is 8 nM.

Take `NC(=O)c1cccc2[nH]c(-c3ccc(C4CCCCN4)s3)nc12` (stereo not drawn) [Example 28, 2-(5-piperidin-2-ylthien-2-yl)-1H-benzimidazole-4-carboxamide]: the Ki is 7 nM.

Take `CN1CCCCC1c1ccc(-c2nc3c(C(N)=O)cccc3[nH]2)s1` (stereo not drawn) [Example 29, 2-(5-(1-methylpiperidin-2-yl)thien-2-yl)-1H-benzimidazole-4-carboxamide]: the Ki was determined as 14 nM.

In the case of `CCCN1CCCCC1c1ccc(-c2nc3c(C(N)=O)cccc3[nH]2)s1` (stereo not drawn) [Example 30, 2-(5-(1-propylpiperidin-2-yl)thien-2-yl)-1H-benzimidazole-4-carboxamide], the inhibition constant (Ki) worked out at 16 nM.

With `NC(=O)c1cccc2[nH]c(-c3ccc(C4CCCCN4CC4CC4)s3)nc12` (stereo not drawn) [Example 31, 2-(5-(1-(cyclopropylmethyl)piperidin-2-yl)thien-2-yl)-1H-benzimidazole-4-carboxamide], the Ki turned out to be 11 nM.

On to `NC(=O)c1cccc2[nH]c(-c3ccc(C4CCCCN4C4CCC4)s3)nc12` (stereo not drawn) [Example 32, 2-(5-(1-cyclobutylpiperidin-2-yl)thien-2-yl)-1H-benzimidazole-4-carboxamide], for which the Ki was 23 nM.

With `CC(C)CN1CCCCC1c1ccc(-c2nc3c(C(N)=O)cccc3[nH]2)s1` (stereo not drawn) [Example 33, 2-(5-(1-isobutylpiperidin-2-yl)thien-2-yl)-1H-benzimidazole-4-carboxamide], the inhibition constant (Ki) was determined as 21 nM.

With `NC(=O)c1cccc2[nH]c(-c3ccc(C4CCCN4)s3)nc12` (stereo not drawn) [Example 34, 2-(5-pyrrolidin-2-ylthien-2-yl)-1H-benzimidazole-4-carboxamide], the Ki was 7 nM.

As for `CN1CCCC1c1ccc(-c2nc3c(C(N)=O)cccc3[nH]2)s1` (stereo not drawn) [Example 35, 2-(5-(1-methylpyrrolidin-2-yl)thien-2-yl)-1H-benzimidazole-4-carboxamide], the Ki was 7 nM.

Regarding `CC(C)N1CCCC1c1ccc(-c2nc3c(C(N)=O)cccc3[nH]2)s1` (stereo not drawn) [Example 36, 2-(5-(1-isopropylpyrrolidin-2-yl)thien-2-yl)-1H-benzimidazole-4-carboxamide], the Ki is 5 nM.
